Assay results: ChEMBL document CHEMBL1201862, “PubChem BioAssay data set” (2004)
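The compound was tested at five concentrations on cells cultured in 96-well plates, with a 48-hour exposure period. GI50 is the concentration that inhibits growth by half.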 The source made the active and inactive calls. Rule as the data show it: active = GI50 up to about 1.1 µM and inactive = higher.

How the values were obtained:
Assay in all cases: DTP human tumour cell line panel, 48 h
M14 = test system: M14
NCI-H522 = test system: NCI-H522
A498 = test system: A498
Hs-578T = test system: Hs-578T
NCI-H23 = test system: NCI-H23
UO-31 = test system: UO-31
SK-OV-3 = test system: SK-OV-3
ACHN = test system: ACHN
BT-549 = test system: BT-549
Malme-3M = test system: Malme-3M
NCI-H226 = test system: NCI-H226
HT-29 = test system: HT-29
A549 = test system: A549
MCF7 = test system: MCF7
COLO 205 = test system: COLO 205
MDA-MB-435 = test system: MDA-MB-435
RXF 393 = test system: RXF 393
HOP-62 = test system: HOP-62
SF-268 = test system: SF-268

Row | Structure (SMILES) | GI50 (M14) | GI50 (NCI-H522) | GI50 (A498) | GI50 (Hs-578T) | GI50 (NCI-H23) | GI50 (UO-31) | GI50 (SK-OV-3) | GI50 (ACHN) | GI50 (BT-549) | GI50 (Malme-3M) | GI50 (NCI-H226) | GI50 (HT-29) | GI50 (A549) | GI50 (MCF7) | GI50 (COLO 205) | GI50 (MDA-MB-435) | GI50 (RXF 393) | GI50 (HOP-62) | GI50 (SF-268)
1 | Nc1nc(-c2cccnc2)cc(-c2cc(-c3cccnc3)nc(N)n2)n1 | > 100 µM (inactive) | > 100 µM (inactive) | > 100 µM (inactive) | > 100 µM (inactive) | > 100 µM (inactive) | > 100 µM (inactive) | > 100 µM (inactive) | > 100 µM (inactive) | > 100 µM (inactive) | > 100 µM (inactive) | > 100 µM (inactive) | > 100 µM (inactive) | > 100 µM (inactive) | > 100 µM (inactive) | > 100 µM (inactive) | 50.1 µM (inactive) | > 100 µM (inactive) | > 100 µM (inactive) | > 100 µM (inactive)
2 | C[C@]12CC[C@H]3[C@@H](CC=C4C[C@@H](O)CC[C@@]43C)[C@@H]1C/C(=C\c1cccnc1)[C@@H]2O | > 100 µM (inactive) | 12.6 µM (inactive) | 7.14 µM (inactive) | 6.21 µM (inactive) | 13.1 µM (inactive) | 55.5 µM (inactive) | 10.8 µM (inactive) | 5.82 µM (inactive) | 13.5 µM (inactive) | > 100 µM (inactive) | 5.25 µM (inactive) | 43.8 µM (inactive) | 7.83 µM (inactive) | 6.75 µM (inactive) | > 100 µM (inactive) | > 100 µM (inactive) | 15 µM (inactive) | 4.67 µM (inactive) | –
3 | CCC(CCC(C)C1CCC2C3CC=C4CC(OC5OC(CO)C(O)C(O)C5O)CCC4(C)C3CCC12C)C(C)C (centres undefined) | > 100 µM (inactive) | > 100 µM (inactive) | > 100 µM (inactive) | > 100 µM (inactive) | > 100 µM (inactive) | > 100 µM (inactive) | > 100 µM (inactive) | > 100 µM (inactive) | > 100 µM (inactive) | > 100 µM (inactive) | > 100 µM (inactive) | > 100 µM (inactive) | > 100 µM (inactive) | > 100 µM (inactive) | > 100 µM (inactive) | > 100 µM (inactive) | > 100 µM (inactive) | > 100 µM (inactive) | > 100 µM (inactive)
4 | O=C1N/C(=N/N=C/C(O)C(O)C(O)C(O)CO)N/C1=C\c1c[nH]c2ccccc12 (centres undefined) | > 100 µM (inactive) | 54.1 µM (inactive) | 38.3 µM (inactive) | > 100 µM (inactive) | > 100 µM (inactive) | – | > 100 µM (inactive) | > 100 µM (inactive) | > 100 µM (inactive) | > 100 µM (inactive) | > 100 µM (inactive) | 57.7 µM (inactive) | > 100 µM (inactive) | > 100 µM (inactive) | > 100 µM (inactive) | > 100 µM (inactive) | > 100 µM (inactive) | > 100 µM (inactive) | > 100 µM (inactive)
5 | c1ccc2c(c1)Sc1ccccc1N2CCCN1c2ccccc2Sc2ccccc21 | 50.6 µM (inactive) | > 100 µM (inactive) | > 100 µM (inactive) | 41.2 µM (inactive) | > 100 µM (inactive) | > 100 µM (inactive) | > 100 µM (inactive) | 39.1 µM (inactive) | > 100 µM (inactive) | > 100 µM (inactive) | > 100 µM (inactive) | > 100 µM (inactive) | > 100 µM (inactive) | > 100 µM (inactive) | 52.6 µM (inactive) | 58.9 µM (inactive) | 78.5 µM (inactive) | 95.1 µM (inactive) | > 100 µM (inactive)
6 | COc1ccc(C(NS(=O)(=O)c2ccc(C)cc2)c2c(C(CBr)OC)c3ccccc3n2S(=O)(=O)c2ccccc2)cc1OC (centres undefined) | > 100 µM (inactive) | > 100 µM (inactive) | > 100 µM (inactive) | > 100 µM (inactive) | > 100 µM (inactive) | > 100 µM (inactive) | > 100 µM (inactive) | > 100 µM (inactive) | > 100 µM (inactive) | > 100 µM (inactive) | > 100 µM (inactive) | > 100 µM (inactive) | > 100 µM (inactive) | > 100 µM (inactive) | > 100 µM (inactive) | > 100 µM (inactive) | > 100 µM (inactive) | > 100 µM (inactive) | > 100 µM (inactive)
7 | COc1cccc(-c2c(-c3ccccc3)[nH]c(C)c2C(=O)ONC(=O)c2ccccc2)c1 | 5.7 µM (inactive) | 3.78 µM (inactive) | 15 µM (inactive) | 4.95 µM (inactive) | 11.6 µM (inactive) | 0.128 µM (active) | 14.2 µM (inactive) | 2.99 µM (inactive) | 5.41 µM (inactive) | 13.4 µM (inactive) | 10.4 µM (inactive) | 10 µM (inactive) | 2.29 µM (inactive) | 8.85 µM (inactive) | 13.7 µM (inactive) | 3.34 µM (inactive) | 4.35 µM (inactive) | 2.72 µM (inactive) | 7.57 µM (inactive)
8 | CN1CN(c2ccccc2)C2(CCN(C3Nc4ccccc4O3)CC2)C1=O (centres undefined) | 18.5 µM (inactive) | 17.5 µM (inactive) | 15.5 µM (inactive) | 12.9 µM (inactive) | 21.2 µM (inactive) | 27.5 µM (inactive) | 19.6 µM (inactive) | 22 µM (inactive) | 15.7 µM (inactive) | 17.3 µM (inactive) | 18.6 µM (inactive) | 17.9 µM (inactive) | 27.3 µM (inactive) | 19.5 µM (inactive) | 16.3 µM (inactive) | 19 µM (inactive) | 14.5 µM (inactive) | 17 µM (inactive) | 23.3 µM (inactive)
9 | NC(=O)c1cc2cc(Cl)cc(Cl)c2o/c1=N\c1ccc(F)cc1 | 20.3 µM (inactive) | 17.7 µM (inactive) | 19.4 µM (inactive) | 35.1 µM (inactive) | 14.7 µM (inactive) | 25.8 µM (inactive) | 22.5 µM (inactive) | 19.5 µM (inactive) | 18.6 µM (inactive) | 21 µM (inactive) | 18.6 µM (inactive) | 29.6 µM (inactive) | 19.3 µM (inactive) | 19.8 µM (inactive) | 17.5 µM (inactive) | 20 µM (inactive) | 16.8 µM (inactive) | 27.6 µM (inactive) | 32.4 µM (inactive)
10 | C[C@@H]1CCC2[C@@H](C)[C@@H](OCCO[C@H]3OC4O[C@@]5(C)CCC6[C@H](C)CCC([C@H]3C)[C@@]46OO5)OC3O[C@@]4(C)CCC1[C@]32OO4 (some centres undefined) | 0.379 µM (active) | 0.0689 µM (active) | 1.92 µM (inactive) | 0.211 µM (active) | 0.115 µM (active) | 0.201 µM (active) | 0.577 µM (active) | 0.154 µM (active) | 0.883 µM (active) | 0.182 µM (active) | 0.289 µM (active) | 0.05 µM (active) | 0.0634 µM (active) | 0.0312 µM (active) | 0.0514 µM (active) | 0.239 µM (active) | 0.94 µM (active) | 1.34 µM (inactive) | 0.233 µM (active)
11 | Nc1cc(C2CCCc3c2[nH]c2ccccc32)ccc1O (centres undefined) | 6.19 µM (inactive) | 20.1 µM (inactive) | > 100 µM (inactive) | 69.8 µM (inactive) | 36.5 µM (inactive) | 10.5 µM (inactive) | > 100 µM (inactive) | 18.5 µM (inactive) | 35.2 µM (inactive) | 33 µM (inactive) | 55.3 µM (inactive) | 23.4 µM (inactive) | 24.6 µM (inactive) | 24.8 µM (inactive) | 45.4 µM (inactive) | 12.3 µM (inactive) | 55.8 µM (inactive) | 74.6 µM (inactive) | 45.9 µM (inactive)
12 | O=C1OCC2OC(=O)c3cc(O)c(O)c(O)c3-c3c(O)c(O)c(O)c4c3C(=O)OC(C2OC(=O)c2cc(O)c(O)c(O)c2-c2c1cc(O)c(O)c2O)C1OC(=O)C2C4=C(O)C(=O)C23Oc2cc(O)c4c(c2[C@H]13)O[C@H](c1ccc(O)c(O)c1)[C@@H](O)C4 (some centres undefined) | 12.6 µM (inactive) | 17.4 µM (inactive) | > 100 µM (inactive) | 28.1 µM (inactive) | 19.8 µM (inactive) | 17.8 µM (inactive) | 44.1 µM (inactive) | 23 µM (inactive) | 19.3 µM (inactive) | 23.1 µM (inactive) | 14.2 µM (inactive) | 16.2 µM (inactive) | 19.1 µM (inactive) | 23.1 µM (inactive) | 19.2 µM (inactive) | 18.5 µM (inactive) | 16.8 µM (inactive) | 41.7 µM (inactive) | 19 µM (inactive)
13 | O=[N+]([O-])c1oc2ccc3ccccc3c2c1CCO | 1.94 µM (inactive) | 1.63 µM (inactive) | 0.166 µM (active) | 5.22 µM (inactive) | 3.23 µM (inactive) | 1.64 µM (inactive) | 1.05 µM (active) | 1.58 µM (inactive) | 2.29 µM (inactive) | 1.78 µM (inactive) | 8.75 µM (inactive) | 2.94 µM (inactive) | 1.9 µM (inactive) | 3.22 µM (inactive) | 0.346 µM (active) | 1.53 µM (inactive) | 1.58 µM (inactive) | 16.6 µM (inactive) | 5.47 µM (inactive)
14 | C=C1[C@H](OCC(C)C)[C@@H](O)[C@@H](OC(=O)c2cccnc2)C(C)(C)/C=C/[C@H](C)[C@H](OC(C)=O)[C@@]2(O)C[C@@](C)(OC(C)=O)[C@H](OC(=O)c3ccccc3)[C@@H]2[C@H]1OC(C)=O | 0.977 µM (active) | 0.944 µM (active) | 0.482 µM (active) | 0.0895 µM (active) | 1.95 µM (inactive) | 0.54 µM (active) | > 3.02 µM (inactive) | 0.161 µM (active) | 1.66 µM (inactive) | 0.187 µM (active) | 1.39 µM (inactive) | 0.0662 µM (active) | 0.0459 µM (active) | 1.8 µM (inactive) | 0.0713 µM (active) | 0.167 µM (active) | 4.24 µM (inactive) | 0.0681 µM (active) | > 1.49 µM (inactive)
